Test results from ChEMBL document CHEMBL1147442, “Epimerisation of lutein to 3'-epilutein in processed foods” (2004).

Key:
Type in all cases: functional
Anethum graveolens = assay: Ratio in pickled dill was determined
Rumex acetosa [1] = assay: Ratio in microwaved sorrel was determined
Capsicum [2] = assay: Ratio in pickled paprika was determined
Rumex acetosa [3] = assay: Ratio in stewed sorrel was determined
Rubus [4] = assay: Ratio in botteled blackberries was determined
Rumex acetosa [5] = assay: Ratio in steamed sorrel was determined
Prunus domestica [6] = assay: Ratio in bottled plum was determined
Rumex acetosa [7] = assay: Ratio in boiled sorrel was determined
Capsicum [8] = assay: Ratio in baked paprika was determined
Prunus domestica [9] = assay: Ratio in raw plum was determined
Rumex acetosa [10] = assay: Ratio in raw sorrel was determined
Capsicum [11] = assay: Ratio in raw paprika was determined
Rubus [12] = assay: Ratio in raw blackberries was determined

Row | Structure (SMILES) | Ratio (Anethum graveolens) [%] | Ratio (Rumex acetosa [1]) [%] | Ratio (Capsicum [2]) [%] | Ratio (Rumex acetosa [3]) [%] | Ratio (Rubus [4]) [%] | Ratio (Rumex acetosa [5]) [%] | Ratio (Prunus domestica [6]) [%] | Ratio (Rumex acetosa [7]) [%] | Ratio (Capsicum [8]) [%] | Ratio (Prunus domestica [9]) [%] | Ratio (Rumex acetosa [10]) [%] | Ratio (Capsicum [11]) [%] | Ratio (Rubus [12]) [%]
1 | C=C1C=CCC(C)(C)[C@H]1/C=C/C(C)=C/C=C/C(C)=C/C=C/C=C(C)/C=C/C=C(C)/C=C/C1=C(C)C[C@@H](O)CC1(C)C | 3 | 5 | 2.2 | 8 | 7.9 | 11.3 | 4.7 | 6.5 | 5.1 | – | – | – | –
2 | CC1=C[C@@H](O)CC(C)(C)[C@H]1/C=C/C(C)=C/C=C/C(C)=C/C=C/C=C(C)/C=C/C=C(C)/C=C/C1=C(C)C[C@@H](O)CC1(C)C | 13.8 | 6.4 | 12.5 | 8.8 | 17.4 | 9.2 | 7 | 9 | 3.8 | – | – | – | –
3 | CC1=C[C@H](O)CC(C)(C)[C@H]1/C=C/C(C)=C/C=C/C(C)=C/C=C/C=C(C)/C=C/C=C(C)/C=C/C1=C(C)C[C@@H](O)CC1(C)C [LUTEIN] | 28.7 | 24 | 49.2 | 16.4 | 37.4 | 12.7 | 29.3 | 28.6 | 47.5 | 34.2 | 36 | 53.5 | 58.6
